The values that follow are results of earlier work, collected in US8188123B2, “(Pyrrolidin-2-yl)phenyl derivatives” (priority 2008, dated 2012).

Each structure is given as a SMILES string. Where two headings read alike, the source gives them in different places.

Data set [1] relates to mechanical allodynia. The following applies: local administration to the sciatic nerve 4 h after surgery; Brennan model.
Data set [2] concerns mechanical allodynia. The following applies: intraperitoneal administration; Chung/von Frey.
The test system of data set [3] is ectopic discharges in A-beta and A-delta fibres. The conditions noted are these: nerve injury.
The test system of data set [4] is nerve injured myelinated DRG.
The test system of data set [5] is spontaneous pain. The following applies: rat mild thermal injury model.
Data set [6] concerns allodynia. The following applies: rat CFA model of inflammatory pain.

With `CCN(c1ccccc1)c1cc(=NC)n(C)c(C)n1.Cl` [ZD 7288], the mechanical allodynia result in data set [1] is “attenuates mechanical allodynia”; in data set [2], “dose-dependently reverses mechanical allodynia”. Besides, the “firing frequency of ectopic discharges” value in data set [3] is “reduced the firing frequency of ectopic discharges in A-beta and A-delta fibres, without causing conduction block”. Also, the spontaneous activity result in data set [4] is listed as “reduces spontaneous activity”. In addition, the spontaneous pain entry in data set [5] is on record as “blocks spontaneous pain”. For the same compound, the allodynia result in data set [6] was “suppresses allodynia”.
